pIC50: −log10 of the molar value.
System: Radical scavenging activity
Experiment: Antioxidant activity assessed as DPPH radical scavenging activity by densitometric analysis relative to ascorbic acid
Assay type: functional

SMILES	Activity [%]
COc1cc(C2Oc3cc([C@H]4Oc5c(O)c(O)cc(O)c5C(=O)[C@@H]4O)ccc3OC2CO)ccc1O (mixture of isomers)	25

System: Radical scavenging activity
Experiment: Antioxidant activity assessed as DPPH radical scavenging activity by densitometric analysis
Assay type: functional

pIC50	SMILES
4.52	COc1cc(C2Oc3cc([C@H]4Oc5c(O)c(O)cc(O)c5C(=O)[C@@H]4O)ccc3OC2CO)ccc1O (mixture of isomers)
3.08	COc1cc(C2Oc3cc([C@H]4Oc5cc(OS(=O)(=O)O)cc(O)c5C(=O)[C@@H]4O)ccc3OC2CO)ccc1O (mixture of isomers)
4.00	COc1cc(C2Oc3cc(-c4oc5cc(OS(=O)(=O)O)cc(O)c5c(=O)c4O)ccc3OC2CO)ccc1O (mixture of isomers)
3.55	COc1cc(C2Oc3cc([C@H]4Oc5cc(O)cc(O)c5C(=O)[C@@H]4O)ccc3OC2CO)ccc1O (mixture of isomers) [SILIBININ]
5.11	O=C1O[C@H]([C@@H](O)CO)C(O)=C1O [ASCORBIC ACID]

Source: ChEMBL document CHEMBL2016549, “Bioconversion of silybin to phase I and II microbial metabolites with retained antioxidant activity” (Bioorg Med Chem, 2012)
